Reference: ChEMBL document CHEMBL1155809, “Design, synthesis, and antihepatocellular carcinoma activity of nitric oxide releasing derivatives of oleanolic acid” (J Med Chem, 2008)
Calls of active or inactive are those of the source. No cut-off for these calls is given here.

Legend:
[1] = tested on: HepG2; experiment: Cytotoxicity against human HepG2 cells assessed as cell death after 24 hrs by lactate dehydrogenase release assay; assay type: functional, cell-based
[2] = tested on: Hep 3B2; experiment: Cytotoxicity against human Hep3B cells assessed as cell death after 24 hrs by lactate dehydrogenase release assay; assay type: functional, cell-based
[3] = tested on: HepG2; experiment: Cytotoxicity against human HepG2 cells assessed as levels of nitric oxide production at 100 uM after 30 to 300 mins by colorimetric assay; assay type: functional, cell-based
[4] = tested on: HeLa; experiment: Cytotoxicity against human HeLa cells assessed as levels of nitric oxide production at 100 uM after 30 to 300 mins by colorimetric assay; assay type: functional, cell-based
[5] = tested on: HeLa; experiment: Cytotoxicity against human HeLa cells assessed as cell death by lactate dehydrogenase release assay; assay type: functional, cell-based
[6] = tested on: HepG2; experiment: Cytotoxicity against human HepG2 cells assessed as cell death at 0.01 uM after 24 hrs by lactate dehydrogenase release assay; assay type: functional
[7] = tested on: PC-3; experiment: Cytotoxicity against human PC3 cells assessed as levels of nitric oxide production at 100 uM after 30 to 300 mins by colorimetric assay; assay type: functional, cell-based
[8] = tested on: Hep 3B2; experiment: Cytotoxicity against human Hep3B cells assessed as levels of nitric oxide production at 100 uM after 30 to 300 mins by colorimetric assay; assay type: functional, cell-based
[9] = Cytotoxicity against human Hep3B cells assessed as cell death at 1 uM after 24 hrs by lactate dehydrogenase release assay; assay type: functional, Hep 3B2
[10] = Cytotoxicity against human Hep3B cells assessed as cell death at 0.001 uM after 24 hrs by lactate dehydrogenase release assay; assay type: functional, Hep 3B2
[11] = tested on: HepG2; experiment: Cytotoxicity against human HepG2 cells assessed as cell death at 0.001 uM after 24 hrs by lactate dehydrogenase release assay; assay type: functional
[12] = tested on: HEK293; experiment: Cytotoxicity against HEK293 cells assessed as cell death by lactate dehydrogenase release assay; assay type: functional, cell-based; conditions: Homo sapiens
[13] = tested on: HepG2; experiment: Cytotoxicity against human HepG2 cells assessed as cell death at 1 uM after 24 hrs by lactate dehydrogenase release assay; assay type: functional
[14] = tested on: HepG2; experiment: Cytotoxicity against human HepG2 cells assessed as cell death at 0.1 uM after 24 hrs by lactate dehydrogenase release assay; assay type: functional
[15] = tested on: MCF7; experiment: Cytotoxicity against human MCF7 cells assessed as levels of nitric oxide production at 100 uM after 30 to 300 mins by colorimetric assay; assay type: functional, cell-based
[16] = Cytotoxicity against human Hep3B cells assessed as cell death at 0.01 uM after 24 hrs by lactate dehydrogenase release assay; assay type: functional, Hep 3B2
[17] = tested on: PC-3; experiment: Cytotoxicity against human PC3 cells assessed as cell death by lactate dehydrogenase release assay; assay type: functional, cell-based
[18] = tested on: MCF7; experiment: Cytotoxicity against human MCF7 cells assessed as cell death by lactate dehydrogenase release assay; assay type: functional, cell-based
[19] = tested on: HEK293; experiment: Cytotoxicity against human HEK293 cells assessed as levels of nitric oxide production at 100 uM after 30 to 300 mins by colorimetric assay; assay type: functional, cell-based
[20] = Cytotoxicity against human Hep3B cells assessed as cell death at 0.1 uM after 24 hrs by lactate dehydrogenase release assay; assay type: functional, Hep 3B2

For CC1(C)CC[C@]2(C(=O)OCc3cccc(OCc4c(-c5ccccc5)no[n+]4[O-])c3)CC[C@]3(C)C(=CC[C@@H]4[C@@]5(C)CC[C@H](O)C(C)(C)[C@@H]5CC[C@]43C)[C@@H]2C1, the Activity [1] was “inactive” and the Activity [2] was “inactive”.

For CC1(C)CC[C@]2(C(=O)O)CC[C@]3(C)C(=CC[C@@H]4[C@@]5(C)CC[C@H](OC(=O)CCC(=O)OCc6cccc(Oc7no[n+]([O-])c7S(=O)(=O)c7ccccc7)c6)C(C)(C)[C@@H]5CC[C@]43C)[C@@H]2C1, the Activity [3] was “Active”, the Activity [4] was “inactive” and the Activity [5] was “inactive”. The Activity [6] was 0%, the Activity [7] was “inactive” and the Activity [8] was “Active”. It also gave an Activity [9] of 0%, an Activity [10] of 0% and an Activity [11] of 0%. For the same molecule, the Activity [12] was “inactive”, the Activity [13] was 0% and the Activity [14] was 0%. The Activity [15] was “inactive”, the Activity [16] was 0% and the Activity [17] was “inactive”. For the same molecule, the Activity [18] was “inactive”, the Activity [19] was “inactive” and the Activity [20] was 0%.

In the case of CC1(C)CC[C@]2(C(=O)OCc3c(-c4ccccc4)no[n+]3[O-])CC[C@]3(C)C(=CC[C@@H]4[C@@]5(C)CC[C@H](O)C(C)(C)[C@@H]5CC[C@]43C)[C@@H]2C1, the Activity [1] was “inactive” and the Activity [2] was “inactive”.

For CC1(C)CC[C@]2(C(=O)OCc3ccc(OCc4c(-c5ccccc5)no[n+]4[O-])cc3)CC[C@]3(C)C(=CC[C@@H]4[C@@]5(C)CC[C@H](OC(=O)C(F)(F)F)C(C)(C)[C@@H]5CC[C@]43C)[C@@H]2C1, the Activity [1] was “inactive” and the Activity [2] was “inactive”.

For CC1(C)CC[C@]2(C(=O)O)CC[C@]3(C)C(=CC[C@@H]4[C@@]5(C)CC[C@H](OC(=O)CCC(=O)OCc6ccc(OCc7c(-c8ccccc8)no[n+]7[O-])cc6)C(C)(C)[C@@H]5CC[C@]43C)[C@@H]2C1, the Activity [1] was “inactive” and the Activity [2] was “inactive”.

With CC1(C)CC[C@]2(C(=O)OCC#CCOc3no[n+]([O-])c3S(=O)(=O)c3ccccc3)CC[C@]3(C)C(=CC[C@@H]4[C@@]5(C)CC[C@H](OC(=O)C(F)(F)F)C(C)(C)[C@@H]5CC[C@]43C)[C@@H]2C1 the Activity [1] was “inactive” and the Activity [2] was “inactive”.

With CC1(C)CC[C@]2(C(=O)O)CC[C@]3(C)C(=CC[C@@H]4[C@@]5(C)CC[C@H](OC(=O)CCC(=O)OCc6c(-c7ccccc7)no[n+]6[O-])C(C)(C)[C@@H]5CC[C@]43C)[C@@H]2C1 the Activity [3] was “Active”, the Activity [4] was “inactive” and the Activity [5] was “inactive”. For the same molecule, the Activity [6] was 0%, the Activity [7] was “inactive” and the Activity [8] was “Active”. The Activity [9] was 0%, the Activity [10] was 0% and the Activity [11] was 0%. The Activity [12] was “inactive”, the Activity [13] was 0% and the Activity [14] was 0%. For the same molecule, the Activity [15] was “inactive”, the Activity [16] was 0% and the Activity [17] was “inactive”. The Activity [18] was “inactive”, the Activity [19] was “inactive” and the Activity [20] was 0%.

In the case of CC1(C)CC[C@]2(C(=O)OCCOCCOc3no[n+]([O-])c3S(=O)(=O)c3ccccc3)CC[C@]3(C)C(=CC[C@@H]4[C@@]5(C)CC[C@H](OC(=O)C(F)(F)F)C(C)(C)[C@@H]5CC[C@]43C)[C@@H]2C1, the Activity [1] was “inactive” and the Activity [2] was “inactive”.

For CCOC(=O)[C@]12CCC(C)(C)C[C@H]1C1=CC[C@@H]3[C@@]4(C)CC[C@H](OC(=O)CCC(=O)OCc5ccc(OCc6c(-c7ccccc7)no[n+]6[O-])cc5)C(C)(C)[C@@H]4CC[C@@]3(C)[C@]1(C)CC2, the Activity [1] was “inactive” and the Activity [2] was “inactive”.

With CC1(C)CC[C@]2(C(=O)OCc3ccccc3)CC[C@]3(C)C(=CC[C@@H]4[C@@]5(C)CC[C@H](OC(=O)CCC(=O)OCc6c(-c7ccccc7)no[n+]6[O-])C(C)(C)[C@@H]5CC[C@]43C)[C@@H]2C1 the Activity [1] was “inactive” and the Activity [2] was “inactive”.

With CCOC(=O)[C@]12CCC(C)(C)C[C@H]1C1=CC[C@@H]3[C@@]4(C)CC[C@H](OC(=O)CCC(=O)OCCOCCOc5no[n+]([O-])c5S(=O)(=O)c5ccccc5)C(C)(C)[C@@H]4CC[C@@]3(C)[C@]1(C)CC2 the Activity [1] was “inactive” and the Activity [2] was “inactive”.

With C[C@H](CCC(=O)O)[C@H]1CC[C@H]2[C@@H]3[C@@H](O)C[C@@H]4C[C@H](O)CC[C@]4(C)[C@H]3CC[C@]12C [URSODIOL] the Activity [3] was “Active”, the Activity [4] was “inactive” and the Activity [5] was “inactive”. For the same molecule, the Activity [6] was 0%, the Activity [7] was “inactive” and the Activity [8] was “Active”. For the same molecule, the Activity [9] was 0%, the Activity [10] was 0% and the Activity [11] was 0%. For the same molecule, the Activity [12] was “inactive”, the Activity [13] was 0% and the Activity [14] was 0%. The Activity [15] was “inactive”, the Activity [16] was 0% and the Activity [17] was “inactive”. The Activity [18] was “inactive”, the Activity [19] was “inactive” and the Activity [20] was 0%.

For CC1(C)CC[C@]2(C(=O)OCc3ccc(Oc4no[n+]([O-])c4S(=O)(=O)c4ccccc4)cc3)CC[C@]3(C)C(=CC[C@@H]4[C@@]5(C)CC[C@H](OC(=O)C(F)(F)F)C(C)(C)[C@@H]5CC[C@]43C)[C@@H]2C1, the Activity [1] was “inactive” and the Activity [2] was “inactive”.
